Measurements taken from PubChem BioAssay AID2060510 (Molecular Pharmacology Branch, DTP, NCI, 2025).

Test system: 439559-082-T-J2-PDC spheroids viability
Assay: Anticancer human tumor 439559-082-T-J2-PDC patient-derived colon adenocarcinoma cell line growth inhibition [GQUAD]
Details: for IC50: curve of first compound; for viability, T/C: stronger effect = lower value; active = viability on the fitted dose curve at most 10% of control; inactive = the rest
Method in brief: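 Multi-cell-type spheroids of tumor cells with HUVEC and mesenchymal stem cells, treated with drug combinations. Concentrations descend in half-log steps from near clinical Cmax, or from 10 microM where Cmax is unknown; viability read-out.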

[1] = second compound 0.0316 µM, first compound 0.0316 µM
[2] = second compound 0.0316 µM, first compound 0.1 µM
[3] = second compound 0.0316 µM, first compound 0.316 µM
[4] = second compound 0.0316 µM, first compound 1 µM
[5] = second compound 0.0316 µM, first compound 3.16 µM
[6] = second compound 0.0316 µM, first compound 10 µM
[7] = second compound 0.1 µM, first compound 0.0316 µM
[8] = second compound 0.1 µM, first compound 0.1 µM
[9] = second compound 0.1 µM, first compound 0.316 µM
[10] = second compound 0.1 µM, first compound 1 µM
[11] = second compound 0.1 µM, first compound 3.16 µM
[12] = second compound 0.1 µM, first compound 10 µM
[13] = second compound 0.316 µM, first compound 0.0316 µM
[14] = second compound 0.316 µM, first compound 0.1 µM
[15] = second compound 0.316 µM, first compound 0.316 µM
[16] = second compound 0.316 µM, first compound 1 µM
[17] = second compound 0.316 µM, first compound 3.16 µM
[18] = second compound 0.316 µM, first compound 10 µM
[19] = second compound 1 µM, first compound 0.0316 µM
[20] = second compound 1 µM, first compound 0.1 µM
[21] = second compound 1 µM, first compound 0.316 µM
[22] = second compound 1 µM, first compound 1 µM
[23] = second compound 1 µM, first compound 3.16 µM
[24] = second compound 1 µM, first compound 10 µM
[25] = second compound 3.16 µM, first compound 0.0316 µM
[26] = second compound 3.16 µM, first compound 0.1 µM
[27] = second compound 3.16 µM, first compound 0.316 µM
[28] = second compound 3.16 µM, first compound 1 µM
[29] = second compound 3.16 µM, first compound 3.16 µM
[30] = second compound 3.16 µM, first compound 10 µM
[31] = second compound 10 µM, first compound 0.0316 µM
[32] = second compound 10 µM, first compound 0.1 µM
[33] = second compound 10 µM, first compound 0.316 µM
[34] = second compound 10 µM, first compound 1 µM
[35] = second compound 10 µM, first compound 3.16 µM
[36] = second compound 10 µM, first compound 10 µM
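Also: spheroids exposed to the agents for 7 days before readout.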
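For viability, T/C in this document: percent of luminescence signal in DMSO vehicle wells taken as 100% viability.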

C#Cc1c(F)ccc2cc(O)cc(-c3ncc4c(N5CC6CCC(C5)N6)nc(OCC56CCCN5CC(F)C6)nc4c3F)c12 (stereo not drawn) + Cc1[nH]c2ccc(F)cc2c1-c1nc2c3cccnc3c3ncccc3c2[nH]1
709 nM: IC50 (second compound 3.16 µM)
1530 nM: IC50 (second compound 0.316 µM)
inactive: viability, T/C [1] 97% | viability, T/C [2] 104% | viability, T/C [3] 87.6% | viability, T/C [4] 71.9% | viability, T/C [5] 13.7% | viability, T/C [7] 112% | viability, T/C [8] 96.4% | viability, T/C [9] 109% | viability, T/C [10] 79.5% | viability, T/C [13] 105% | viability, T/C [14] 97.9% | viability, T/C [15] 90.8% | viability, T/C [16] 74.2% | viability, T/C [19] 91.5% | viability, T/C [20] 91.9% | viability, T/C [21] 101% | viability, T/C [22] 79.9% | viability, T/C [25] 72.2% | viability, T/C [26] 72.5% | viability, T/C [27] 70.8% | viability, T/C [28] 41.1% | viability, T/C [31] 85.2% | viability, T/C [32] 69.3% | viability, T/C [33] 93% | viability, T/C [34] 50.5%
1610 nM: IC50 (second compound 1 µM)
1010 nM: IC50 (second compound 10 µM)
1540 nM: IC50 (second compound 0.0316 µM)
active: viability, T/C [6] 9.66% | viability, T/C [11] 9.72% | viability, T/C [12] 7.59% | viability, T/C [17] 7.82% | viability, T/C [18] 7.52% | viability, T/C [23] 8.22% | viability, T/C [24] 5.9% | viability, T/C [29] 5.26% | viability, T/C [30] 2.89% | viability, T/C [35] 2.77% | viability, T/C [36] 3.31%
1620 nM: IC50 (second compound 0.1 µM)

CCCS(=O)(=O)Nc1ccc(F)c(C(=O)c2c[nH]c3ncc(-c4ccc(Cl)cc4)cc23)c1F + Cc1[nH]c2ccc(F)cc2c1-c1nc2c3cccnc3c3ncccc3c2[nH]1
3130 nM: IC50 (second compound 1 µM)
3100 nM: IC50 (second compound 0.316 µM)
2640 nM: IC50 (second compound 0.1 µM)
inactive: viability, T/C [1] 108% | viability, T/C [2] 96.2% | viability, T/C [3] 103% | viability, T/C [4] 78.5% | viability, T/C [5] 46.5% | viability, T/C [6] 21.1% | viability, T/C [7] 104% | viability, T/C [8] 94.5% | viability, T/C [9] 95% | viability, T/C [10] 83.8% | viability, T/C [11] 43.5% | viability, T/C [12] 22.7% | viability, T/C [13] 105% | viability, T/C [14] 100% | viability, T/C [15] 89.8% | viability, T/C [16] 80.2% | viability, T/C [17] 47.6% | viability, T/C [18] 23% | viability, T/C [19] 108% | viability, T/C [20] 97.3% | viability, T/C [21] 90.4% | viability, T/C [22] 75.1% | viability, T/C [23] 48.6% | viability, T/C [24] 20.8% | viability, T/C [25] 78.7% | viability, T/C [26] 86% | viability, T/C [27] 79.5% | viability, T/C [28] 65.2% | viability, T/C [29] 40.5% | viability, T/C [30] 16.2% | viability, T/C [31] 81.2% | viability, T/C [32] 67.6% | viability, T/C [33] 71.5% | viability, T/C [34] 67.6% | viability, T/C [35] 46.1% | viability, T/C [36] 13.5%
2040 nM: IC50 (second compound 3.16 µM)
2750 nM: IC50 (second compound 0.0316 µM)
2610 nM: IC50 (second compound 10 µM)

COc1cccc2c1C(=O)c1c(O)c3c(c(O)c1C2=O)CC(O)(C(=O)CO)CC3OC1CC(N)C(O)C(C)O1 (stereo not drawn) + Cc1[nH]c2ccc(F)cc2c1-c1nc2c3cccnc3c3ncccc3c2[nH]1
inactive: viability, T/C [1] 98.5% | viability, T/C [2] 100% | viability, T/C [3] 96.2% | viability, T/C [4] 82.1% | viability, T/C [5] 61.5% | viability, T/C [6] 54.2% | viability, T/C [7] 107% | viability, T/C [8] 99% | viability, T/C [9] 89.1% | viability, T/C [10] 87.5% | viability, T/C [11] 69.5% | viability, T/C [12] 54.1% | viability, T/C [13] 98.9% | viability, T/C [14] 95.3% | viability, T/C [15] 85.9% | viability, T/C [16] 89.2% | viability, T/C [17] 62.7% | viability, T/C [18] 50.8% | viability, T/C [19] 87.9% | viability, T/C [20] 87% | viability, T/C [21] 82.1% | viability, T/C [22] 83.2% | viability, T/C [23] 67.3% | viability, T/C [24] 56.2% | viability, T/C [25] 80.4% | viability, T/C [26] 75% | viability, T/C [27] 85.2% | viability, T/C [28] 64.2% | viability, T/C [29] 63.3% | viability, T/C [30] 49.7% | viability, T/C [31] 92.3% | viability, T/C [32] 80.3% | viability, T/C [33] 69.8% | viability, T/C [34] 68.2% | viability, T/C [35] 53.2% | viability, T/C [36] 43.9%
5250 nM: IC50 (second compound 10 µM)
> 10000 nM: IC50 (second compound 0.0316 µM) | IC50 (second compound 0.1 µM) | IC50 (second compound 0.316 µM) | IC50 (second compound 1 µM)
9820 nM: IC50 (second compound 3.16 µM)

Nc1ccn(C2OC(CO)C(O)C2(F)F)c(=O)n1 (stereo not drawn) + Cc1[nH]c2ccc(F)cc2c1-c1nc2c3cccnc3c3ncccc3c2[nH]1
203 nM: IC50 (second compound 3.16 µM)
375 nM: IC50 (second compound 0.0316 µM)
inactive: viability, T/C [1] 84.5% | viability, T/C [2] 76.7% | viability, T/C [3] 51.8% | viability, T/C [4] 34.9% | viability, T/C [5] 26.7% | viability, T/C [6] 25.9% | viability, T/C [7] 92.7% | viability, T/C [8] 71.9% | viability, T/C [9] 59% | viability, T/C [10] 36.9% | viability, T/C [11] 29.5% | viability, T/C [12] 23.3% | viability, T/C [13] 98.8% | viability, T/C [14] 73.6% | viability, T/C [15] 47.8% | viability, T/C [16] 41.3% | viability, T/C [17] 28.6% | viability, T/C [18] 23.7% | viability, T/C [19] 82.8% | viability, T/C [20] 67.8% | viability, T/C [21] 50.4% | viability, T/C [22] 32.8% | viability, T/C [23] 27.6% | viability, T/C [24] 22.6% | viability, T/C [25] 73.3% | viability, T/C [26] 65.1% | viability, T/C [27] 38.6% | viability, T/C [28] 31% | viability, T/C [29] 26.4% | viability, T/C [30] 17.5% | viability, T/C [31] 73.2% | viability, T/C [32] 66.2% | viability, T/C [33] 40.9% | viability, T/C [34] 27% | viability, T/C [35] 26.2% | viability, T/C [36] 19%
211 nM: IC50 (second compound 10 µM)
468 nM: IC50 (second compound 0.1 µM)
304 nM: IC50 (second compound 1 µM)
362 nM: IC50 (second compound 0.316 µM)
